Like-named read-outs stand apart in the source and are kept apart here. Where a SMILES comes first, the peptide text is derived from it. Bridges are numbered along the chain shown (N, C = ends). [ ]: non-standard residue; d: D form. The star is where a group is joined. hPhe(3-Cl-4-CF3) = N[C@@H](CCc1ccc(C(F)(F)F)c(Cl)c1)C(=O)O; NPrPhe(4-CF3) = CCCN[C@@H](Cc1ccc(C(F)(F)F)cc1)C(=O)O; Pro(4-spirocPr) = O=C(O)[C@@H]1CC2(CC2)CN1; NMeGly(cPent) = CN[C@H](C(=O)O)C1CCCC1; NMeD = CN[C@@H](CC(=O)O)C(=O)O; NMeL = CN[C@@H](CC(C)C)C(=O)O; Ac6c = NC1(C(=O)O)CCCCC1; Morpholide = C1CN(*)CCO1; Ac5c = NC1(C(=O)O)CCCC1; NEtG = CCNCC(=O)O; Sar = CNCC(=O)O
How the values were obtained:
[1] = molecular target: GDP-bound KRAS wild-type protein (Homo sapiens, UniProt P01116); assay: Binding to KRAS by surface plasmon resonance (SPR), Single Cycle Kinetics; details: GDP-bound KRAS wild-type protein, read-out: KRAS KD
GDP-bound KRAS wild-type protein, sequence (P01116 whole entry): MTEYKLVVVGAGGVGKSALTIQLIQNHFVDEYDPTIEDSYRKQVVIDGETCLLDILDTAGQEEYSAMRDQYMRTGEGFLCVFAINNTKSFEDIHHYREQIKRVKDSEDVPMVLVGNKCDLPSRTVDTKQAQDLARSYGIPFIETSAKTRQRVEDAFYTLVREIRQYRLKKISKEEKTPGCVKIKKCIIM

[2] = molecular target: GDP-bound NRAS wild-type protein (Homo sapiens, UniProt P01111); assay: Binding to NRAS by surface plasmon resonance (SPR), Single Cycle Kinetics; details: for NRAS/KRAS (ratio of KD value for NRAS to KD value for KRAS) / NRAS/KRAS (ratio of KD value with respect to NRAS to KD value with respect to KRAS): SPR, GDP-bound NRAS wild-type protein vs GDP-bound KRAS wild-type protein
GDP-bound NRAS wild-type protein, sequence (P01111 whole entry): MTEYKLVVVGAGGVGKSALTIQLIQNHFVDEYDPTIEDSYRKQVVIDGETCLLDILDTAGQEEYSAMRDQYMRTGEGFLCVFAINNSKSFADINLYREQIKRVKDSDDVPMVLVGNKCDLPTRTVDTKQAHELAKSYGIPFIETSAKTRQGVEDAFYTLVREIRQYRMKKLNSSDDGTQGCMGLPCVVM

[3] = molecular target: GDP-bound HRAS wild-type protein (Homo sapiens, UniProt P01112); assay: Binding to HRAS by surface plasmon resonance (SPR), Single Cycle Kinetics; details: for HRAS/KRAS (ratio of KD value for HRAS to KD value for KRAS) / HRAS/KRAS (ratio of KD value with respect to HRAS to KD value with respect to KRAS): SPR, GDP-bound HRAS wild-type protein vs GDP-bound KRAS wild-type protein
GDP-bound HRAS wild-type protein, sequence (P01112 whole entry): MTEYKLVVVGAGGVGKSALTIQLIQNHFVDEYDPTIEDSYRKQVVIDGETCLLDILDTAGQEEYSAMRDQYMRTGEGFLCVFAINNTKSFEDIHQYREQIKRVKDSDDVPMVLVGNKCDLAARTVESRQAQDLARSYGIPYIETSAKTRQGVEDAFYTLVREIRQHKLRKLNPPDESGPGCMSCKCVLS

[4] = SPR Single Cycle Kinetics, 1:1 binding model

Row | Structure (SMILES) | Kd ([1]; SPR, Single Cycle Kinetics) [nM] | NRAS/KRAS (ratio of KD value for NRAS to KD value for KRAS) [2] | HRAS/KRAS (ratio of KD value for HRAS to KD value for KRAS) [3] | Kd [1, 4] [nM] | NRAS/KRAS (ratio of KD value with respect to NRAS to KD value with respect to KRAS) [2] | HRAS/KRAS (ratio of KD value with respect to HRAS to KD value with respect to KRAS) [3] | NRAS/KRAS (ratio of KD value with respect to GDP-bound NRAS wild-type protein to KD value with respect to KRAS) ([2]; SPR KD ratio NRAS/KRAS, class symbols) | HRAS/KRAS (ratio of KD value with respect to GDP-bound HRAS wild-type protein to KD value with respect to KRAS) ([3]; SPR KD ratio HRAS/KRAS, class symbols)
1 | CCO[C@@H]1C[C@H]2C(=O)NC3(CCC3)C(=O)N(C)[C@@H](C3CCCC3)C(=O)N(C)[C@H](C(=O)N(C)C)CC(=O)N(C)[C@@H](CC)C(=O)N[C@@H]([C@@H](C)CC)C(=O)N(C)CC(=O)N(C)[C@H]3CCCCN(C3=O)[C@@H](Cc3ccc(C(F)(F)F)cc3)C(=O)N(C)CC(=O)N[C@@H](CCc3ccc(C(F)(F)F)c(OC)c3)C(=O)N2C1 [PP0884] | 0.022 | C (A compound having a KD ratio of 0.1 or more and less than 3 is denoted as C) | C (A compound having a KD ratio of 0.1 or more and less than 3 is denoted as C) |  |  |  |  | 
2 | CCO[C@@H]1C[C@H]2C(=O)NC3(CCC3)C(=O)N(C)[C@@H](C3CCCC3)C(=O)N(C)[C@H](C(=O)N3CCOCC3)CC(=O)N(C)[C@@H](CCOC)C(=O)N[C@@H]([C@@H](C)CC)C(=O)N(C)CC(=O)N(C)[C@H]3CCCCN(C3=O)[C@@H](Cc3ccc(C(F)(F)F)cc3)C(=O)N(C)CC(=O)N[C@@H](CCc3cc(F)c(C(F)(F)F)c(F)c3)C(=O)N2C1 [PP0720] |  |  |  | 0.036 | C (A compound having a KD ratio of 0.1 or more and less than 3 is denoted as C) | B (a compound having 3 or more and less than 10 is denoted as B) |  | 
3 | CC[C@H](C)[C@@H]1NC(=O)[C@H](CC(C)C)N(C)C(=O)C[C@@H](C(=O)N2CCOCC2)N(C)C(=O)[C@H](C2CCCC2)N(C)C(=O)C2(CCC2)NC(=O)[C@@H]2C[C@@H](OCC(F)F)CN2C(=O)[C@H](CCc2cc(F)c(C(F)(F)F)c(F)c2)NC(=O)CN(C)C(=O)[C@H](Cc2ccc(C(F)(F)F)cc2)N2CCCC[C@@H](C2=O)N(C)C(=O)CN(C)C1=O [PP1002] | 0.025 | B (a compound having 3 or more and less than 10 is denoted as B) | B (a compound having 3 or more and less than 10 is denoted as B) |  |  |  |  | 
4 | C#CC[C@H]1C(=O)N[C@@H]([C@@H](C)CC)C(=O)N(C)CC(=O)N(C)[C@H]2C/C=C\CCN(C2=O)[C@@H](Cc2ccc(C(F)(F)F)cc2)C(=O)N(C)CC(=O)N[C@@H](CCc2ccc(C(F)(F)F)c(OC)c2)C(=O)N2C[C@H](OCC)C[C@H]2C(=O)NC2(CC(C)(C)C2)C(=O)N(C)[C@@H](C2CCCC2)C(=O)N(C)[C@H](C(=O)N(C)CC)CC(=O)N1C [PP2051] | 0.12 | A (a compound having 10 or more and less than 20 is denoted as A) | A (a compound having 10 or more and less than 20 is denoted as A) |  |  |  |  | 
5 | CCO[C@@H]1C[C@H]2C(=O)NC3(CCC3)C(=O)N(C)[C@@H](C3CCCC3)C(=O)N(C)[C@H](C(=O)N(C)C)CC(=O)N(C)[C@@H](Cc3cccc(C)c3)C(=O)N[C@@H]([C@@H](C)CC)C(=O)N(C)CC(=O)N(C)[C@H]3CCCCCN(C3=O)[C@@H](Cc3ccc(C(F)(F)F)cc3)C(=O)N(C)CC(=O)N[C@@H](CCc3cc(F)c(C(F)(F)F)c(F)c3)C(=O)N2C1 [PP0942] | 0.99 | B (a compound having 3 or more and less than 10 is denoted as B) | B (a compound having 3 or more and less than 10 is denoted as B) |  |  |  |  | 
6 | C=CC[C@H]1C(=O)N[C@@H]([C@@H](C)CC)C(=O)N(C)CC(=O)N(C)[C@H]2C/C=C\CCN(C2=O)[C@@H](Cc2ccc(C(F)(F)F)cc2)C(=O)N(C)CC(=O)N[C@@H](CCc2cc(F)c(C(F)(F)F)c(F)c2)C(=O)N2C[C@H](OCC)C[C@H]2C(=O)NC2(CCC2)C(=O)N(C)[C@@H](C2CCCC2)C(=O)N(C)[C@H](C(=O)N(C)C)CC(=O)N1C [PP1114, (2S,8S,12R,14S,20S,23S,27S,30S,36S,38Z)-27-allyl-20-cyclopentyl-8-[2-[3,5-difluoro-4-(trifluoromethyl)phenyl]ethyl]-12-ethoxy-N,N,4,19,22,26,32,35-octamethyl-30-[(1S)-1-methylpropyl]-3,6,9,15,18,21,25,28,31,34,42-undecaoxo-2-[[4-(trifluoromethyl)phenyl]methyl]spiro[1,4,7,10,16,19,22,26,29,32,35-undecazatricyclo[34.5.1.0^10,14]dotetracont-38-ene-17,1′-cyclobutane]-23-carboxamide] | 0.054 | A (a compound having 10 or more and less than 20 is denoted as A) | A (a compound having 10 or more and less than 20 is denoted as A) |  |  |  |  | 
7 | CCCN1C(=O)CN(C)C(=O)CN(C)C(=O)[C@H]([C@@H](C)CC)NC(=O)[C@H](CC(C)C)N(C)C(=O)C[C@@H](C(=O)N2CCOCC2)N(C)C(=O)[C@H](C2CCCC2)N(C)C(=O)C2(CCCCC2)NC(=O)[C@@H]2CCCN2C(=O)[C@H](CCc2ccc(C(F)(F)F)c(Cl)c2)NC(=O)CN(C)C(=O)[C@@H]1Cc1ccc(C(F)(F)F)cc1 [PP0231] ([NMeL]I[Sar][Sar][NPrPhe(4-CF3)][Sar][hPhe(3-Cl-4-CF3)]P[Ac6c][NMeGly(cPent)][NMeD]-Morpholide; lactam N-11) |  | B (a compound having 3 or more and less than 10 is denoted as B) | C (A compound having a KD ratio of 0.1 or more and less than 3 is denoted as C) | 0.55 |  |  |  | 
8 | CCCN1C(=O)CN(C)C(=O)CN(CC)C(=O)[C@H]([C@@H](C)CC)NC(=O)[C@H](CC(C)C)N(C)C(=O)C[C@@H](C(=O)N2CCOCC2)N(C)C(=O)[C@H](C2CCCC2)N(C)C(=O)C2(CCCC2)NC(=O)[C@@H]2CC3(CC3)CN2C(=O)[C@H](CCc2ccc(C(F)(F)F)c(Cl)c2)NC(=O)CN(C)C(=O)[C@@H]1Cc1ccc(C(F)(F)F)cc1 [PP0295] ([NMeL]I[NEtG][Sar][NPrPhe(4-CF3)][Sar][hPhe(3-Cl-4-CF3)][Pro(4-spirocPr)][Ac5c][NMeGly(cPent)][NMeD]-Morpholide; lactam N-11) |  | B (a compound having 3 or more and less than 10 is denoted as B) | C (A compound having a KD ratio of 0.1 or more and less than 3 is denoted as C) | 0.52 |  |  |  | 
9 | CCC[C@H]1C(=O)N[C@@H]([C@@H](C)CC)C(=O)N(C2CC2)CC(=O)N(C)[C@H]2C/C=C\CCN(C2=O)[C@@H](Cc2ccc(C(F)(F)F)cc2)C(=O)N(C)CC(=O)N[C@@H](CCc2ccc(C(F)(F)F)c(OC)c2)C(=O)N2C[C@H](OCC)C[C@H]2C(=O)N(C)C2(CCC2)C(=O)N(C)[C@@H](C2CCCC2)C(=O)N(C)[C@H](C(=O)N(C)C)CC(=O)N1C [PP2316, (2S,8S,12R,14S,20S,23S,27S,30S,36S,38Z)-20-cyclopentyl-32-cyclopropyl-12-ethoxy-8-[2-[3-methoxy-4-(trifluoromethyl)phenyl]ethyl]-N,N,4,16,19,22,26,35-octamethyl-30-[(1S)-1-methylpropyl]-3,6,9,15,18,21,25,28,31,34,42-undecaoxo-27-propyl-2-[[4-(trifluoromethyl)phenyl]methyl]spiro[1,4,7,10,16,19,22,26,29,32,35-undecazatricyclo[34.5.1.0^10,14]dotetracont-38-ene-17,1′-cyclobutane]-23-carboxamide] | 0.12 | A (a compound having 10 or more and less than 20 is denoted as A) | A (a compound having 10 or more and less than 20 is denoted as A) |  |  |  |  | 
10 | CCC[C@H]1C(=O)N[C@@H]([C@@H](C)CC)C(=O)N(C)CC(=O)N(C)[C@H]2C/C=C\CCN(C2=O)[C@@H](Cc2ccc(C)cc2)C(=O)N(C)CC(=O)N[C@@H](CCc2cc(Cl)c3c(ccn3C)c2)C(=O)N2C[C@H](OCC)C[C@H]2C(=O)NC2(CC(C)(C)C2)C(=O)N(C)[C@@H](C(CC)CC)C(=O)N(C)[C@H](C(=O)N(C)C)CC(=O)N1C [PP2898] |  |  |  | 4.8 |  |  | A (a compound having 10 or more and less than 20 is denoted as A) | A (a compound having 10 or more and less than 20 is denoted as A)
11 | CC[C@H](C)[C@@H]1NC(=O)[C@H](CC(C)C)N(C)C(=O)C[C@@H](C(=O)N2CCOCC2)N(C)C(=O)[C@H](C2CCCC2)N(CC)C(=O)C2(CCCC2)NC(=O)[C@@H]2CCCN2C(=O)[C@H](CCc2cc(F)c(C(F)(F)F)c(F)c2)NC(=O)CN(C)C(=O)[C@H](Cc2ccc(C(F)(F)F)cc2)N2CCCC[C@@H](C2=O)N(C)C(=O)CN(C)C1=O [PP0538] |  |  |  | 0.67 | B (a compound having 3 or more and less than 10 is denoted as B) | B (a compound having 3 or more and less than 10 is denoted as B) |  | 
